According to patent publication US4235962A, “Combination kit for transaminase assay of a body fluid” (The Dow Chemical Company, priority 1978, dated 1980):

Key:
[1] = target: AST (Sus scrofa, UniProt P00503); conditions: cited from earlier work
[2] = target: T1, ALT (alanine 2-oxoglutarate aminotransferase) (Homo sapiens, UniProt P24298)
T1 sequence (P24298 2-496 limits assumed): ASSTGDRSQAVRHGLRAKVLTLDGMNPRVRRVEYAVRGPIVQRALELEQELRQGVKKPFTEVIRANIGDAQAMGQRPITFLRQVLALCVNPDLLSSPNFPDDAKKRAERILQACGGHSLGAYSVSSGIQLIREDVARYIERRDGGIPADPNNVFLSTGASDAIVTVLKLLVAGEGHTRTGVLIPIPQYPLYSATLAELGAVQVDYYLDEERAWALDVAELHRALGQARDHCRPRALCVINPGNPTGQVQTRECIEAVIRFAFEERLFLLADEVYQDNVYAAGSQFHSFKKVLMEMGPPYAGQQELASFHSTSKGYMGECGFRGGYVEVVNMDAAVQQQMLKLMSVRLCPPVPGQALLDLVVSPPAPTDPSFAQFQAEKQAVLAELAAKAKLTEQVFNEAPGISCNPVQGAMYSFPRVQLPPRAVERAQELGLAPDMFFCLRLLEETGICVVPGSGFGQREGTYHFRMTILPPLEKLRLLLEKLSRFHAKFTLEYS
Description: For precise measurement of a bimolecular reaction of the type under discussion, the rate of a reaction, at a given "B" concentration should be independent of A's concentration (i.e. at or near apparent Vmax with respect to A). However, for situations where A's concentrations are very low (i.e. endogenous serum contributions of amino acids in a side reaction situation) it becomes important to be able to access the extent of measurement of the apparent maximum velocity of said "contaminant reaction." This being the case of a combination AST/ALT test where one is concerned with the measurement of AST in an ALT test or vice versa, a mathematical outline is in order. Both side reactions are quantitatively discussed below.
ALT, likewise having a "ping pong" mechanism of catalysis, can kinetically be described identically: [formula] […] (KB /B+1 is again <<KA /A.
Therefore the [formula] […] Therefore the % V1 apparent as measured [formula]

AST, sequence (P00503 2-413 limits assumed): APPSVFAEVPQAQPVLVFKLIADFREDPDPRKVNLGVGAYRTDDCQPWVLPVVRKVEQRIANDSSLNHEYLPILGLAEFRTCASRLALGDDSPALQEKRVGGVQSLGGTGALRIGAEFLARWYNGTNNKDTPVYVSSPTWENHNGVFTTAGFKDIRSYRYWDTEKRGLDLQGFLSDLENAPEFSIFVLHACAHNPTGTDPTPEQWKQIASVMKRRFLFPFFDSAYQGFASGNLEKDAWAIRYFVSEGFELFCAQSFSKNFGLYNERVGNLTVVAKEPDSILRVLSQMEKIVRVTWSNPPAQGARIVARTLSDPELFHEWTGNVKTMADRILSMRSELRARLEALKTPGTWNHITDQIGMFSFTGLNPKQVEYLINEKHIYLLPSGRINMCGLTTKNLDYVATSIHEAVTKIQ

## O=C(O)CCC(=O)C(=O)O [2-oxoglutarate, 2-Oxoglutarate]
[1]; read-out: KB, B = 2-oxoglutarate
  Km: 100 µM

## N[C@@H](CC(=O)O)C(=O)O [aspartate, L-aspartate]
[1]; A = aspartate
  KA: 0.90 mM

## C[C@H](N)C(=O)O [alanine, L-alanine]
[2]
  Theoretical turnover of ALT: 1.32 % Vmax
